Values joined by “and” are separate entries in the source; they are usually repeats but may differ in a detail not shown here. Identical values can stand only once. Like-named read-outs stand apart in the source and are kept apart here.
What was measured:
[1] = biological target: T1, human α1D‐adrenoceptor (full length) (Homo sapiens, UniProt P25100); assay: ^3H‐prazosin whole‐cell radioligand binding, CHO‐α1D cells; conditions: CHO‐α1D cells; for Kd: given as log KD (negative), mean ± SEM, 'early plateau' = specific binding not fully inhibited
T1 construct: human α1D‐adrenoceptor (full length) were used; expressed in transfected cells; host or cells: CHO-K1
T1 sequence (P25100 1-572): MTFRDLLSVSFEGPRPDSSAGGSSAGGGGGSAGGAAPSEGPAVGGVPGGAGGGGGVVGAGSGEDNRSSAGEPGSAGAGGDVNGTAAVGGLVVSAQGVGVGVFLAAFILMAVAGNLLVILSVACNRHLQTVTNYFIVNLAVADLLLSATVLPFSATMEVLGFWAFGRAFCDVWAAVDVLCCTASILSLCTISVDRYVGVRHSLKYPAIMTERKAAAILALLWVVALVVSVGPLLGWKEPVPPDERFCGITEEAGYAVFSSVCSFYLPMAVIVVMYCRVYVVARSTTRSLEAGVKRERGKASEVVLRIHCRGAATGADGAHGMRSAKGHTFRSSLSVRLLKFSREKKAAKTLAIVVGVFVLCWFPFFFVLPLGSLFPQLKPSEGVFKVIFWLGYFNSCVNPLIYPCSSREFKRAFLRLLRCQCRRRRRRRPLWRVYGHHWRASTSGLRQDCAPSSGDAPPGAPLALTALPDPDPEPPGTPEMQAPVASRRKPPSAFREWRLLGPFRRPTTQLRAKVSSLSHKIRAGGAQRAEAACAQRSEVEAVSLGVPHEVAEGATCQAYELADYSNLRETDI

human α1A‐adrenoceptor [2] = biological target: T2, human α1A‐adrenoceptor (Homo sapiens, UniProt P35348); assay: Intracellular free calcium mobilization, CHO‐α1A cells; format: cell-based; conditions: CHO‐α1A cells; for Intracellular calcium release % ionomycin: maximal response as % of 10 µM ionomycin
T2 construct: expressed in transfected cells; host or cells: CHO-K1
T2 sequence (P35348 1-466): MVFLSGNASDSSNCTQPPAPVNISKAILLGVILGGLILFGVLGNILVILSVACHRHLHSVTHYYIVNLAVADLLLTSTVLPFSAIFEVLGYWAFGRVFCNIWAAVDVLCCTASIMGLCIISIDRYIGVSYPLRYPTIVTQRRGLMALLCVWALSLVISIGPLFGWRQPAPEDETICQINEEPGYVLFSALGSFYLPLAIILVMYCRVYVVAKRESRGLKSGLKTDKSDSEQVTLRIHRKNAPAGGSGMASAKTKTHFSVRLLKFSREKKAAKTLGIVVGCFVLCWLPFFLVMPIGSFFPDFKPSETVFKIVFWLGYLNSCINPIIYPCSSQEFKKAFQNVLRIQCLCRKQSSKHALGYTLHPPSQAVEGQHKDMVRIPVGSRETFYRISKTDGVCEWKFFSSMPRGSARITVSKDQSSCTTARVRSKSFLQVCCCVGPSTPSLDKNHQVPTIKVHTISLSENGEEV

[3] = biological target: T1, human α1D‐adrenoceptor (full length); assay: Intracellular free calcium mobilization, CHO‐α1D cells; format: cell-based; conditions: CHO‐α1D cells; for EC50: log values given negative, read-out: Intracellular calcium release Log EC50 (converted)
human α1A‐adrenoceptor [4] = biological target: T2, human α1A‐adrenoceptor; assay: ERK1/2‐phosphorylation (Surefire Alphascreen), CHO‐α1A cells; format: cell-based; conditions: CHO‐α1A cells, ^a bi‐phasic: initial stimulatory part; for ERK1/2‐phosphorylation % PDBu: % of 10 µM PDBu
human α1B‐adrenoceptor [5] = biological target: T3, human α1B‐adrenoceptor (Homo sapiens, UniProt P35368); assay: ERK1/2‐phosphorylation (Surefire Alphascreen), CHO‐α1B cells; format: cell-based
T3 construct: expressed in transfected cells; host or cells: CHO-K1
T3 sequence (P35368 1-520): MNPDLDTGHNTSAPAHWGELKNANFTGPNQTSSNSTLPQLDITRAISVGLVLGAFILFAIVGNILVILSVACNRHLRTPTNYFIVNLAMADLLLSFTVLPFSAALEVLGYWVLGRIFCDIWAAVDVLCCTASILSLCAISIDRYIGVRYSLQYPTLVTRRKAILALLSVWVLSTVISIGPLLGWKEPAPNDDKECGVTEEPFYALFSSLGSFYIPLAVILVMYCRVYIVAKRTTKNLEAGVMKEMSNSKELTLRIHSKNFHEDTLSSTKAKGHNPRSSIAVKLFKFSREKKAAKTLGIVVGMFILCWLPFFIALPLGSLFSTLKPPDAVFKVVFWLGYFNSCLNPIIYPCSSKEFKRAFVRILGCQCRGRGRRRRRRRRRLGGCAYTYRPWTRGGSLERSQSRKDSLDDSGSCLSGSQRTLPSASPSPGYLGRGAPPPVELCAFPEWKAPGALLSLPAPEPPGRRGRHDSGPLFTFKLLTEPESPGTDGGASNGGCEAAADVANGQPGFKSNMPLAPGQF

[6] = biological target: T1, human α1D‐adrenoceptor (full length); assay: ERK1/2‐phosphorylation (Surefire Alphascreen), CHO‐α1D cells; format: cell-based; conditions: for EC50: log values given negative, read-out: ERK1/2‐phosphorylation Log EC50 (converted)
[7] = system: parental CHO cell line without any transfected receptors; assay: ERK1/2‐phosphorylation, parent CHO cells without transfected receptors; format: cell-based, Chinese hamster
human α1A‐adrenoceptor [8] = biological target: T2, human α1A‐adrenoceptor; assay: ^3H‐cAMP accumulation, CHO‐α1A cells; format: cell-based; conditions: CHO‐α1A cells; for cAMP accumulation % forskolin: % of 10 µM forskolin response
human α1B‐adrenoceptor [9] = biological target: T3, human α1B‐adrenoceptor; assay: ^3H‐cAMP accumulation, CHO‐α1B cells; format: cell-based; conditions: CHO‐α1B cells; % forskolin maximum response
[10] = biological target: T1, human α1D‐adrenoceptor (full length); assay: ^3H‐cAMP accumulation, CHO‐α1D cells; format: cell-based; conditions: cAMP accumulation without forskolin
human α1A‐adrenoceptor [11] = biological target: T2, human α1A‐adrenoceptor; assay: ^3H‐cAMP accumulation in the presence of 10 μM forskolin, CHO‐α1A cells; format: cell-based
[12] = biological target: T1, human α1D‐adrenoceptor (full length); assay: ^3H‐cAMP accumulation in the presence of 10 μM forskolin, CHO‐α1D cells; format: cell-based; conditions: CHO‐α1D cells; for EC50: in presence of forskolin, log values given negative
[13] = system: parental CHO cell line without any transfected receptors; assay: Forskolin‐stimulated cAMP accumulation, parent CHO cells without transfected receptors; format: cell-based, Chinese hamster; conditions: CHO cells without transfected receptors; in presence of forskolin
human α1A‐adrenoceptor [14] = biological target: T2, human α1A‐adrenoceptor; assay: ^3H‐prazosin whole‐cell radioligand binding, CHO‐α1A cells
human α1B‐adrenoceptor [15] = biological target: T3, human α1B‐adrenoceptor; assay: ^3H‐prazosin whole‐cell radioligand binding, CHO‐α1B cells; conditions: CHO‐α1B cells; printed as IC50> log value
human α1B‐adrenoceptor [16] = biological target: T3, human α1B‐adrenoceptor; assay: Intracellular free calcium mobilization, CHO‐α1B cells; format: cell-based; conditions: CHO‐α1B cells; for Intracellular calcium release % ionomycin: maximal response as % of 10 µM ionomycin response
[17] = CHO‐α1D cells, maximal response as % of PDBu
[18] = CHO‐α1B cells, maximal response as % PDBu response, for bi‐phasic responses the initial stimulatory part

SMILES	Intracellular calcium release % ionomycin (human α1A‐adrenoceptor [2]) [%]	EC50 [3] [µM]	ERK1/2‐phosphorylation % PDBu (human α1A‐adrenoceptor [4])	EC50 ([6]; CHO‐α1D cells) [µM]	ERK1/2‐phosphorylation % PDBu [6, 17] [%]	cAMP accumulation % forskolin (human α1A‐adrenoceptor [8])	cAMP accumulation % forskolin (human α1B‐adrenoceptor [9]) [%]	cAMP Log EC50 [10]	EC50 [12] [µM]	cAMP accumulation (in presence of forskolin) Log EC50 [13]	Intracellular calcium release % ionomycin (human α1B‐adrenoceptor [16]) [%]	ERK1/2‐phosphorylation % PDBu (human α1B‐adrenoceptor [5]; [18]) [%]	further results
CNC[C@H](O)c1ccc(O)c(O)c1 [Adrenaline]	58.9 ± 3.7	0.0182	71.3% and 71.3 ± 7.7%	0.182	32.2 ± 4.0	164% and 164.0 ± 7.3%	172.1 ± 11.3	No response	0.871	No response			Kd ([1]; Log KD α1D, ^3H‐prazosin whole cell binding): 6.46 µM; Intracellular calcium release % ionomycin (human α1A‐adrenoceptor [2]; listed as adrenaline): 58.9%; Intracellular calcium release % ionomycin ([3]; maximal response as % of 10 µM ionomycin): 30.3 ± 2.3%; ERK1/2‐phosphorylation % PDBu (human α1B‐adrenoceptor [5]): 76.6 ± 9.0%; ERK1/2-phosphorylation % PDBu ([7]; CHO cells without transfected receptors, maximal response as % of PDBu (10μM) response, mean ± s.e.m.): No response; Gi‐mediated inhibition of forskolin‐stimulated cAMP, CHO‐α1A cells (human α1A‐adrenoceptor [11]): did not inhibit cAMP accumulation
NCC(O)c1ccc(O)cc1 (stereo not shown) [Octopamine]	57.5 ± 2.1	6.31	81.2 ± 6.8%	18.6				No response	1.82	No response	54.9 ± 2.9	76.1 ± 6.8	Kd (human α1A‐adrenoceptor [14]; Log KD α1A, ^3H‐prazosin whole cell binding, CHO‐α1A cells, given as log KD (negative), mean ± SEM): 363 µM; Affinity selectivity ratio α1A vs α1B (human α1A‐adrenoceptor [14]; higher affinity for α1A than α1B): >2.8 fold; Affinity selectivity ratio α1A vs α1D (human α1A‐adrenoceptor [14]; higher affinity for α1A than α1D): >2.8 fold; IC50 (human α1B‐adrenoceptor [15]): > 1000 µM; 3H‐prazosin binding log IC50 (bound, printed in Log KD column) ([1]; whole‐cell binding, given as IC50 > log value): IC50 > −3; IC50 ([1]; printed as IC50> log value): > 1000 µM; Log efficacy ratio KD /EC50 (human α1A‐adrenoceptor [2]; binding KD and calcium EC50): 2.66; EC50 (human α1A‐adrenoceptor [2]; given as log EC50 (negative), read-out: Intracellular calcium release Log EC50 (converted)): 0.794 µM; EC50 (human α1B‐adrenoceptor [16]; given as log EC50 (negative numbers), read-out: Intracellular calcium release Log EC50 (converted)): 1.23 µM; Log efficacy ratio KD /EC50 (human α1B‐adrenoceptor [16]; intrinsic efficacy ratio, KD from binding / EC50 calcium, log): >2.91; Log efficacy ratio KD /EC50 ([3]; intrinsic efficacy ratio, binding KD / calcium EC50): >2.20; EC50 (human α1A‐adrenoceptor [4]; 2–4 min, ^b also active in parent CHO cells, read-out: ERK1/2‐phosphorylation Log EC50 (converted)): 4.17 µM; EC50 (human α1B‐adrenoceptor [5]; CHO‐α1B cells, for bi‐phasic responses the initial stimulatory part, read-out: ERK1/2‐phosphorylation Log EC50 (converted)): 7.76 µM; ERK1/2‐phosphorylation % PDBu [6]: 14.5 ± 5.9%; Emax at 100 µM ([7]; Cricetulus griseus, CHO, read-out: ERK1/2-phosphorylation % PDBu at 100μM): 2.9 ± 1.8%; cAMP accumulation % forskolin at 100 µM (human α1A‐adrenoceptor [8]; response at 100 μM ligand, no EC50 obtained): 18.0 ± 1.5%; cAMP accumulation (in presence of forskolin) Fold increase at 100 µM (human α1A‐adrenoceptor [11]; CHO‐α1A cells, response at 100 μM ligand, no EC50 obtained): 1.89 ± 0.06 fold; cAMP (in presence of forskolin) Fold increase ([12]; fold increase of the forskolin response): 1.17 ± 0.06
CNC[C@H](O)c1cccc(O)c1 [R‐phenylephrine]	58.3 ± 2.9	0.0631	84.5 ± 4.5%	0.676	15.8 ± 2.9	132.5 ± 4.5%	86.2 ± 5.3	No response	0.17		67.0 ± 3.3	77.0 ± 4.8	Kd [1]: 22.4 µM
